The values that follow come from ChEMBL document CHEMBL1201862, “PubChem BioAssay data set” (2004).

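Exposure lasted 48 hours, with cells grown in 96-well plates and compounds tested at five concentrations. Abbreviation: GI50, concentration required for 50% inhibition of growth.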 Activity calls are given as the source filed them. No stated cut-off is given here; in the data, active = GI50 up to about 1.1 µM and inactive = higher. Some results are limits rather than exact numbers.

Test systems include 786-0; A549; ACHN; CAKI-1; COLO 205; EKVX; HCC 2998; HOP-92; LOX IMVI; M14; MDA-MB-435; MDA-N; NCI-H522; RPMI-8226; SF-295; SK-MEL-28; SK-OV-3; SN12C; SNB-75; RXF 393.
Experiment in all cases: NCI tumour cell line growth inhibition, 48 h

As to `COc1ccc2c(c1)-c1nc(=O)n(CCCN(C)C)c3ccc([N+](=O)[O-])c(c13)N2`, the GI50 in the experiment with 786-0 is 0.466 µM (active); with A549, 0.469 µM (active); with ACHN, 0.485 µM (active); in the experiment on CAKI-1 it was 0.434 µM (active); in the experiment with COLO 205, 0.752 µM (active); with EKVX, 0.711 µM (active). The GI50 was 1.06 µM (active) in the experiment on HCC 2998; 1.57 µM (inactive) in the experiment with HOP-92; 0.838 µM (active) in the experiment on LOX IMVI; 1.08 µM (active) in the experiment on M14; 2.6 µM (inactive) in the experiment with MDA-MB-435; 3.22 µM (inactive) with MDA-N. Besides, the GI50 was 0.368 µM (active) in the experiment on NCI-H522; 0.231 µM (active) with RPMI-8226; 0.791 µM (active) in the experiment on SF-295; 1.19 µM (inactive) in the experiment on SK-MEL-28; 1.29 µM (inactive) in the experiment with SK-OV-3; 0.752 µM (active) in the experiment with SN12C. Besides, the GI50 in the experiment on SNB-75 is 1.28 µM (inactive).
As for `CC(=O)OCC1OC(n2c3c(c(-c4ccc(C)cc4)c(C#N)c2=S)C(=O)CC(C)(C)C3)C(OC(C)=O)C(OC(C)=O)C1OC(C)=O` (stereo unspecified), the GI50 with 786-0 was 33.7 µM (inactive); in the experiment on A549 it was 50.4 µM (inactive); in the experiment on ACHN, 39 µM (inactive); in the experiment on CAKI-1 it was 52.5 µM (inactive); in the experiment with COLO 205 it was 37.3 µM (inactive); in the experiment with HOP-92 it was 45.5 µM (inactive). In addition, the GI50 in the experiment with LOX IMVI was 13.3 µM (inactive); in the experiment on M14 it was 35.5 µM (inactive); in the experiment with MDA-MB-435, 27 µM (inactive); with MDA-N, 15.7 µM (inactive); in the experiment on NCI-H522 it was 30.8 µM (inactive); in the experiment with RPMI-8226, 27.5 µM (inactive). Also, the GI50 with RXF 393 was 23.3 µM (inactive); in the experiment with SF-295, 25.5 µM (inactive); with SK-MEL-28, 26.2 µM (inactive); in the experiment with SN12C it was 17.6 µM (inactive); in the experiment on SNB-75, 23.9 µM (inactive).
Consider `CC(=O)NS(=O)(=O)c1ccc(NC(=O)c2c3ccccc3nc3ccccc23)cc1`, for which the GI50 in the experiment with 786-0, in the experiment with A549, with ACHN, in the experiment with CAKI-1, in the experiment with COLO 205 and in the experiment on EKVX was > 100 µM (inactive) throughout. The GI50 in the experiment with HCC 2998, with HOP-92, with LOX IMVI, in the experiment with M14, with MDA-MB-435 and with MDA-N was > 100 µM (inactive) in each case. Also, the GI50 with NCI-H522, with RPMI-8226, with SF-295, with SK-MEL-28, with SK-OV-3 and with SN12C was > 100 µM (inactive) each time. In addition, in the experiment on SNB-75, the GI50 is > 100 µM (inactive).
As to `CN1CCc2c(sc3ncn(Nc4ccc(Cl)cc4)c(=N)c23)C1`, the GI50 in the experiment with 786-0, with A549, in the experiment on ACHN, in the experiment with CAKI-1, in the experiment with COLO 205 and in the experiment on EKVX was > 100 µM (inactive) in each case. In addition, the GI50 in the experiment on HOP-92, in the experiment on LOX IMVI, with M14, with MDA-MB-435, in the experiment on MDA-N and with NCI-H522 was > 100 µM (inactive) each time. In addition, the GI50 in the experiment on RPMI-8226, in the experiment with RXF 393, with SF-295, with SK-MEL-28, in the experiment with SK-OV-3 and in the experiment with SN12C was > 100 µM (inactive) each time. For the same compound, in the experiment with SNB-75, the GI50 is > 100 µM (inactive).
In the case of `COc1cc(S(=O)(=O)Nc2nc(-c3ccc(N4C(=O)/C(=C/C=C/c5ccccc5)N=C4c4ccccc4)cc3)cs2)ccc1Cl`, the GI50 was > 100 µM (inactive) in the experiment with 786-0; > 100 µM (inactive) with A549; > 100 µM (inactive) in the experiment with ACHN; > 100 µM (inactive) in the experiment with CAKI-1; > 100 µM (inactive) with COLO 205; 28.3 µM (inactive) in the experiment with HOP-92. Moreover, the GI50 with LOX IMVI was 53.5 µM (inactive); in the experiment with M14, > 100 µM (inactive); with MDA-MB-435, > 100 µM (inactive); with MDA-N, > 100 µM (inactive); in the experiment with NCI-H522, 48.2 µM (inactive); with RXF 393 it was 37.6 µM (inactive). The GI50 in the experiment on SF-295 is > 100 µM (inactive); in the experiment with SK-MEL-28, 81.3 µM (inactive); in the experiment on SK-OV-3 it was > 100 µM (inactive); in the experiment with SN12C, > 100 µM (inactive); in the experiment with SNB-75 it was 93.1 µM (inactive).
Turning to `Oc1ccc2ccccc2c1/N=N/c1ccc(Br)cc1`, the GI50 in the experiment on 786-0 was > 100 µM (inactive); in the experiment with A549, > 100 µM (inactive); in the experiment on ACHN, 89.1 µM (inactive); in the experiment on CAKI-1 it was > 100 µM (inactive); in the experiment with COLO 205, > 100 µM (inactive); in the experiment on EKVX, 36.2 µM (inactive). For the same compound, the GI50 in the experiment on HOP-92 is 35.3 µM (inactive); in the experiment on LOX IMVI, > 100 µM (inactive); with M14, 87.5 µM (inactive); in the experiment on MDA-MB-435 it was > 100 µM (inactive); with MDA-N, > 100 µM (inactive); with NCI-H522, > 100 µM (inactive). The GI50 was > 100 µM (inactive) in the experiment on RPMI-8226; > 100 µM (inactive) with RXF 393; 28.9 µM (inactive) in the experiment on SF-295; > 100 µM (inactive) in the experiment with SK-MEL-28; 17.4 µM (inactive) with SK-OV-3; > 100 µM (inactive) in the experiment with SN12C. Further, the GI50 in the experiment on SNB-75 was 95.5 µM (inactive).
As to `CCOC(=O)c1c(C)nc2c(c1-c1cn(-c3ccccc3)nc1-c1ccccc1)C(=O)c1ccccc1-2`, the GI50 in the experiment on 786-0, with A549, in the experiment with CAKI-1, in the experiment with COLO 205, in the experiment with EKVX and in the experiment on HOP-92 was > 100 µM (inactive) each time. Also, the GI50 in the experiment with LOX IMVI, in the experiment on M14, in the experiment with MDA-MB-435, in the experiment on MDA-N, with NCI-H522 and in the experiment on RXF 393 was > 100 µM (inactive) each time. For the same compound, the GI50 in the experiment on SF-295, in the experiment on SK-MEL-28, in the experiment with SK-OV-3, in the experiment on SN12C and with SNB-75 was > 100 µM (inactive) throughout.
As for `Cc1ccc2nc(CN3CCCC(O)C3)cc(=O)n2c1` (stereo unspecified), the GI50 with 786-0, in the experiment on A549, with ACHN, with CAKI-1, with COLO 205 and in the experiment with EKVX was > 100 µM (inactive) in each case. Also, the GI50 in the experiment on HCC 2998, in the experiment on HOP-92, in the experiment on LOX IMVI, with M14, in the experiment on MDA-MB-435 and in the experiment with MDA-N was > 100 µM (inactive) in each case. The GI50 in the experiment on NCI-H522, with RPMI-8226, in the experiment with SF-295, in the experiment on SK-MEL-28, in the experiment on SK-OV-3 and in the experiment with SN12C was > 100 µM (inactive) each time. For the same compound, in the experiment with SNB-75, the GI50 is > 100 µM (inactive).
